Source: patent US20230263825A1, “ANTI-CANCER ACTIVITY OF PERBORATE SALTS” (priority 2020, published 2023)

How the values were obtained:
Type in all cases: cell-based
[1] = test system: chordoma (CH22, JHC7, UM-Chor1, MUG-Chor1, U-CH1) cells; assay: MTS cytotoxicity assay
Description: (§1) An MTS reduction (MTS (3-(4,5-dimethylthiazol-2-yl)-5-(3-carboxymethoxyphenyl)-2-(4-sulfophenyl)-2H-tetrazolium) assay) was conducted to analyze the cytotoxic effect of sodium perborate tetrahydrate on lung, chordoma and pancreatic cells and normal cells. In this method, cell viability is determined via the activity of mitochondrial dehydrogenase enzyme, which reduces the tetrazolium dye MTS to its […] formazan (absorbance maximum of 490 nm in PBS).
(§2) Cells were counted and seeded in 96-well culture dishes. […] The positive control comprised 20% Dimethyl Sulfoxide and the negative control comprised complete growth media. Seeding densities were as follows: DMS114: 20.000 cells/well; MRC5: 5.000 cells/well; CH22: 2.000 cells/well; JHC7, UM-Chor1, MUG-Chor1, UCH1 and NPH: 5.000 cells/well; PSN1: 10.000 cells/well; BxPC3 and ASPC: 7.500 cells/well. The effect of sodium perborate tetrahydrate on cell viability was measured as follows. The cell culture medium was discarded and 100 μl of MTS solution (10% glucose solution and 1% MTS-PMS solution in PBS) was added into each well. After 1 hour incubation in a humidified incubator, an absorbance reading was taken to determine mitochondrial dehydrogenase activity and cell survival was calculated relative to the negative control.

normal cells (MRC5, NPH) = assay: MTS cytotoxicity assay
Description: as §1, §2

[2] = test system: pancreatic cancer (PSN1, BxPC3 and ASPC) cells; assay: MTS cytotoxicity assay
Description: as §1, §2

[3] = test system: DMS114 cells (small cell lung cancer cells); assay: MTS cytotoxicity assay
Description: as §1, §2

[4] = test system: PSN-1 (a pancreatic adenocarcinoma cell line); assay: MTS cytotoxicity assay, single agents and combinations; settings: PSN-1, alone
Description: as §1, §2

[5] = test system: MRC5 cells (healthy lung cells); assay: Flow cytometry (Annexin V / PI) cell death pathways; settings: 15 μg/mL, 3 days
Description: (§3) Cell death pathways were analysed using the Annexin V method, performed by flow cytometry. In this method, Annexin V dye is used to detect cells entering the apoptosis death pathway (Sigma-Aldrich Cat No: 11858777001), while PI (Propidium Iodide) dye is used to detect cells entering the necrosis death pathway (Sigma-Aldrich Cat No: 11858777001).
(§4) Cells were grown in complete RPMI media (completed with 10% Fetal Bovine Serum and 1% penicillin streptomycin amphotericin) in a humidified CO2 incubator (80% humidity, 5% CO2 and 37° C.). At 70-80% confluency, cells were harvested using Trypsin/EDTA solution. After 3 days of sodium perborate tetrahydrate treatment (15 μg/mL), the cells were harvested and divided into 4 equal tubes. […] Only PI dye was placed in the second tube and necrotic cells were detected. Annexin V dye was placed in the third tube and apoptotic cells were detected. In the fourth tube, two dyes were put together. […] On the other hand, over 90% of MRC5 cells were alive in the control as well as following treatment with sodium perborate tetrahydrate, with only a small percentage (<5%) of treated cells in necrosis.

[6] = test system: DMS114 cells (small cell lung cancer cells); assay: as above; settings: 15 μg/mL, 3 days
Description: as §3, §4

Structure (SMILES): O.O.O.O.[Na+].[O-]B1OO1 [sodium perborate tetrahydrate]
- cell survival of chordoma cell lines [1]: effective in decreasing cell survival
- cell survival of normal cell lines (normal cells (MRC5, NPH)): minimal impact on the cell survival
- cell survival of pancreatic cell lines [2]: effective in decreasing cell survival
- cell survival of lung cancer cell lines [3]: effective in decreasing cell survival
- EC50 (dose that kills 50% of cells) ([3]; DMS114): 15 µg/mL
- time to maximum effect on DMS114 cells ([3]; FIG. 3A): ≤ 1 days
- toxicity compared with other boron derivatives ([3]; FIGS. 23A-C, same biological model): significantly less toxic than boric acid and sodium pentaborate pentahydrate
- EC50 concentration [4]: 7.5 µg/mL
- damage to healthy cells (MRC5) relative to cancer cells (DMS114), times less [5]: approximately 5 times
- cells alive ([5]; MRC5): over 90%
- treated cells in necrosis ([5]; MRC5): less than 5%
- cells alive [6]: less than 5%
- cells in early apoptosis [6]: ~80%
- cells in late apoptosis [6]: ~10%
